From patent US20070135490A1, “Phenetanolamine derivatives” (priority 2003, published 2007) come the findings set out here.

The target in the assay is T1, human beta-2 receptor (Homo sapiens, UniProt P07550).
T1 construct: expressed in transfected cells; host or cells: Chinese hamster ovary cells (whole cells or membranes derived from them)
In words: Chinese hamster ovary cells co-expressing the human receptor with a reporter gene, cAMP measurement in whole cells or membranes (Method 2). Type of assay: cell-based. The conditions noted are these: CHO cells or membranes, read-out: pEC50 at the human beta-2 receptor (converted). On the procedure: Potency of compounds of the invention at the human beta 2, 1 and 3 receptors was also determined using Chinese hamster ovary cells co-expressing the human receptor with a reporter gene. Studies were performed using either whole cells or membranes derived from those cells.
The three beta-receptors are coupled via the Gs G-protein to cause a simulation of adenylate cyclase resulting in increased levels of cAMP in the cell. For direct cAMP measurements either membranes or cells have been used with either the HitHunter enzyme fragment complementation kit (DiscoveRx) or the FP^2 fluorescence polarisation kit (Perkin Elmer) to quantify the levels of cAMP present. These assays provide a measure of agonist potency and intrinsic activity of the compounds at the various receptors. […]
In this assay the potency of compounds at the human beta-2 receptor is expressed as a pEC50 value. Compounds of examples 12-26, 28-50 and 52-64 had pEC50 values greather than 6. […] No result is available for the compound of example 51.

SMILES strings stand for the structures.

T1 sequence (P07550 whole entry): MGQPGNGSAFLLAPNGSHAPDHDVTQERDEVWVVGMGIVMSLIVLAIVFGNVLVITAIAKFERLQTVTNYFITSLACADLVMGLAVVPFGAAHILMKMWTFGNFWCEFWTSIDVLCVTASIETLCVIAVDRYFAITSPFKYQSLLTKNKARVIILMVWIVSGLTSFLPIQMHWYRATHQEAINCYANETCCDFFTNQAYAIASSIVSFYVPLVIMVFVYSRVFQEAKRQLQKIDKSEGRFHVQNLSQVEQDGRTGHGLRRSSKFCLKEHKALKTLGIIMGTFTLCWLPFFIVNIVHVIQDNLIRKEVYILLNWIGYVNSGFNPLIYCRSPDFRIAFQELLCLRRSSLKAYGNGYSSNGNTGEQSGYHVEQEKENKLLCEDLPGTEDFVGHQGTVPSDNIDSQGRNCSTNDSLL

Take `NS(=O)(=O)c1cccc(CCCOCc2cccc(CCNC[C@H](O)c3ccc(O)c(CO)c3)c2)c1` [Example 56, Formic acid compound with 3-[3-({3-[2-({(2R)-2-hydroxy-2-[4-hydroxy-3-(hydroxymethyl)phenyl]ethyl}amino)ethyl]benzyl}oxy)propyl]benzenesulfonamide (1:1)]: the EC50 is < 1000 nM.
On to `O=S(=O)(c1ccc(CCCCOCc2cccc(CCNC[C@H](O)c3ccc(O)c(CO)c3)c2)cc1)C1CCCC1` [Example 29, Formic acid compound with 4-[(1R)-2-({2-[3-({4-[4-(cyclopentylsulfonyl)phenyl]butoxy}methyl)phenyl]ethyl}amino)-1-hydroxyethyl]-2-(hydroxymethyl)phenol (1:1)], for which the EC50 is < 1000 nM.
As to `OCc1cc([C@@H](O)CNCCc2cccc(COCc3ccc(O)cc3)c2)ccc1O` [Example 26, Formic acid compound with 4-((1R)-1-hydroxy-2-{[2-(3-{[(4-hydroxybenzyl)oxy]methyl}phenyl)ethyl]amino}ethyl)-2-(hydroxymethyl)phenol (1:1)], the EC50 is < 1000 nM.
Regarding `[O-][S+](c1cccc(COCCOCc2cccc(CCNC[C@H](O)c3ccc(O)c(CO)c3)c2)c1)C1CCCC1` (stereo partly drawn) [Example 34, Formic acid compound with 4-{(1R)-2-[(2-{3-[(2-{[3-(cyclopentylsulfinyl)benzyl]oxy}ethoxy)methyl]phenyl}ethyl)amino]-1-hydroxyethyl}-2-(hydroxymethyl)phenol (1:1)], the EC50 is < 1000 nM.
As for `OCc1cc([C@@H](O)CNCCc2cccc(COCCOCc3cccc(OC(F)(F)F)c3)c2)ccc1O` [Example 18, Formic acid compound with 2-(hydroxymethyl)-4-{(1R)-1-hydroxy-2-[(2-{3-[(2-{[3-(trifluoromethoxy)benzyl]oxy}ethoxy)methyl]phenyl}ethyl)amino]ethyl}phenol (1:1)], the figure is < 1000 nM; as for `N#Cc1cccc(CCCCOCc2cccc(CCNC[C@H](O)c3ccc(O)c(CO)c3)c2)c1` [Example 37, Formic acid compound with 3-[4-({3-[2-({(2R)-2-hydroxy-2-[4-hydroxy-3-(hydroxymethyl)phenyl]ethyl}amino)ethyl]benzyl}oxy)butyl]benzonitrile (1:1)], < 1000 nM; as for `NC(=O)c1ccc(COCc2cccc(CCNC[C@H](O)c3ccc(O)c(CO)c3)c2)cc1` [Example 54, Formic acid compound with 4-[({3-[2-({(2R)-2-hydroxy-2-[4-hydroxy-3-(hydroxymethyl)phenyl]ethyl}amino)ethyl]benzyl}oxy)methyl]benzamide (1:1)], < 1000 nM.
As for `OCc1cc([C@@H](O)CNCCc2cccc(COCCOCc3cccc(O)c3)c2)ccc1O` [Example 32, Formic acid compound with 4-[(1R)-1-hydroxy-2-({2-[3-({2-[(3-hydroxybenzyl)oxy]ethoxy}methyl)phenyl]ethyl}amino)ethyl]-2-(hydroxymethyl)phenol (1:1)], the figure is < 1000 nM; as for `OCc1cc([C@@H](O)CNCCc2cccc(COCCc3ccc(F)cc3)c2)ccc1O` [Example 40, Formic acid compound with 4-((1R)-2-{[2-(3-{[2-(4-fluorophenyl)ethoxy]methyl}phenyl)ethyl]amino}-1-hydroxyethyl)-2-(hydroxymethyl)phenol (1:1)], < 1000 nM.
In the case of `OCc1cc([C@@H](O)CNCCc2cccc(COCCc3ccccc3O)c2)ccc1O` [Example 25, Formic acid compound with 4-((1R)-1-hydroxy-2-{[2-(3-{[2-(2-hydroxyphenyl)ethoxy]methyl}phenyl)ethyl]amino}ethyl)-2-(hydroxymethyl)phenol (1:1)], the EC50 was < 1000 nM.
Consider `N#Cc1cccc(COCc2cccc(CCNC[C@H](O)c3ccc(O)c(CO)c3)c2)c1` [Example 42, Formic acid compound with 3-[({3-[2-({(2R)-2-hydroxy-2-[4-hydroxy-3-(hydroxymethyl)phenyl]ethyl}amino)ethyl]benzyl}oxy)methyl]benzonitrile (1:1)], for which the EC50 was < 1000 nM.
